{
  "source": "patent US20160082019A1",
  "about": "“Drug Combinations to Treat Cancer” (EXELIXIS, INC., priority 2013, published 2016)",
  "origin": "cited, not measured here",
  "conditions": "cabozantinib alone; in some cases normalized; independent of PSA declines",
  "data": [
    {"compound": "COc1cc2nccc(Oc3ccc(NC(=O)C4(C(=O)Nc5ccc(F)cc5)CC4)cc3)c2cc1OC", "note": "[Cabozantinib, N-(4-{[6,7-bis(methyloxy)quinolin-4-yl]oxy}phenyl)-N′-(4-fluorophenyl)cyclopropane-1,1-dicarboxamide]", "values": [
      {"measurement": "uptake on bone scans", "result": "decrease uptake on bone scans"}
    ]}
  ]
}
